The results in this text go back to ChEMBL document CHEMBL1134170, “Securiosides A and B, novel acylated triterpene bisdesmosides with selective cytotoxic activity against M-CSF-stimulated macrophages” (Bioorg Med Chem Lett, 2001).

For one experiment, the species on record is Mus musculus. The experiment can be described thus: Cytotoxic activity against M-CSF-stimulated macrophages (from male mice). The class given is functional.
For a further experiment, the species on record is Ovis aries. The experiment can be described thus: Ability to hemolyze sheep erythrocytes and induce change in macrophage morphology and DNA fragmentation at a concentration of 10 ug/mL; inactive. The class given is functional.

Activity calls are given as the source filed them. No cut-off for these calls is given here.

Turning to `COc1ccc(/C=C/C(=O)O[C@H]2[C@@H](O[C@H]3O[C@H](COC(C)=O)[C@H](O)[C@H](O)[C@H]3O)[C@@H](O[C@H]3O[C@H](C)[C@@H](O[C@H]4OC[C@H](O)[C@H](O)[C@H]4O)[C@@H](O)[C@@H]3O)[C@H](OC(=O)[C@]34CCC(C)(C)C[C@H]3C3=CC[C@@H]5[C@@]6(C)C[C@H](O)[C@H](O[C@@H]7O[C@@H](CO)[C@@H](O)[C@H](O)[C@@H]7O)[C@@](C)(C(=O)O)C6CC[C@@]5(C)[C@]3(CO)CC4)O[C@@H]2C)cc1OC` (some centres undefined) [SECURIOSIDE A], the concentration for half-maximal inhibition (IC50) in the experiment listed under Mus musculus was below 250 nM. Moreover, the Hemolysis entry in the experiment filed under Ovis aries is “inactive”.
For `COc1ccc(/C=C/C(=O)O[C@H]2[C@H](O)[C@@H](O[C@H]3O[C@H](C)[C@@H](O[C@H]4OCC(O[C@H]5O[C@H](CO)[C@@H](O)[C@@H](O)[C@H]5O)C(O[C@H]5O[C@H](CO)[C@H](O)[C@@H](O)[C@H]5O)[C@H]4O)[C@@H](O)[C@@H]3O)[C@@H](OC(=O)[C@]34CCC(C)(C)C[C@H]3C3=CC[C@@H]5[C@@]6(C)C[C@H](O)[C@H](O[C@@H]7O[C@@H](CO)[C@@H](O)[C@H](O)[C@@H]7O)[C@@](C)(C(=O)O)C6CC[C@@]5(C)[C@]3(CO)CC4)O[C@@H]2C)cc1OC` (some centres undefined) [SECURIOSIDE B], in that order: below 250 nM and “inactive”.
